Experimental data: patent US8420693B2, “Dipyrrole compounds, compositions, and methods for treating cancer or viral diseases” (Gemin X Pharmaceuticals Canada Inc., priority 2004, dated 2013)
Structures can show the parent of a compound that is named as a salt.

What was measured:
[1] = system: human prostatic adenocarcinoma cancer PC3 cells; test: Growth of PC3 prostate tumors in SCID mice; type: in vivo
Text: (§1) As used herein, the term “T/C value” refers to the value obtained when: (a) the change from baseline in average tumor volume of treated mice is divided by the change from baseline in the average tumor volume of negative control mice; and (b) the numerical value obtained in step (a) is multiplied by 100.
The resultant mice are a model for a human having prostatic cancer.
The human prostatic adenocarcinoma cancer PC3 cells were purchased from the American Type Culture Collection (ATCC). These cells were confirmed to be free of mycoplasma infection. Cells were maintained in the Roswell Park Memorial Institute (RPMI), supplemented with 10% inactivated fetal bovine serum and 1% penicillin-streptomycin-L-Glutamine, under 5% carbon dioxide (CO2) at 37° C. For prostatic-tumor induction, cells were grown lower than 70% confluence in complete medium and then collected with trypsin (Bio Whittaker, Rockland, Me., USA). Cells were then centrifuged and washed 2 times in phosphate buffer solution (PBS) and resuspended in PBS at 1.5×10^6 cells/0.1 mL. PC3 cells were then transplanted subcutaneously into the right flank of SCID mice (Charles River Laboratories, Wilmington, Mass., USA), as a suspension of tumor cells (1.5×10^6 cells in 100 μL PBS), under a laminar airflow hood. Eleven (11) days later, the size of each tumor was measured. […] Relative tumor size and volume was calculated as follows: length (cm)×[width (cm)]^2/2. There were four treatment groups of ten mice each: (a) a negative control group, (b) a positive control group and (c) a group treated with 36.25 μMoles/Kg of Compound 17 Mesylate Salt (d) a group treated with 72.5 μMoles/Kg of Compound 17 Mesylate Salt.
Treatments started on day eleven after PC3 cells transplantation. […] The negative control group was treated with vehicle alone.
Observation continued for 32 days after initial tumor implantation.

[2] = system: C33A human cervical cancer cells; test: Growth of C33A cervical tumors in CB17 SCID/SCID mice; type: in vivo; conditions: for T/C value: day 42
Text: as §1
The resultant mice are a model for a human having cervical cancer.
The C33A human cervical cancer cells were maintained in RPMI (Hyclone, Utah, USA) supplemented with 10% inactivated fetal bovine serum (Bio-Whittaker, MD, USA) and 1% penicillin-streptomycin-L-Glutamine (Gibco, N.Y., USA), under 5% CO2 at 37° C., and passaged twice a week. The cells were grown at a confluency lower than 70% and than collected with Trypsin (Bio-Whittaker, MD, USA). The cells were then centrifuged and washed twice using phosphate buffered saline solution (PBS) and resuspended in PBS at 2×10^6 cells per 100 μl. Viability was examined by staining with trypan blue (Gibco, N.Y., USA) and only flasks with cell viability greater than 95% were used for in vivo studies.
C33A cells were injected subcutaneously into the flank of female CB17 SCID/SCID mice. Each mouse was inoculated with a suspension of 2×10^6 tumors cells per 100 μl on day zero. There were three treatment groups of ten mice each: (a) a negative control group, (b) a group treated with Compound 22 MS and (c) a group treated with Compound 37 MS.
Treatments started on day twenty eight after C33A cells transplantation. […] The negative control group was treated with vehicle alone. The injection volume for Compound treated groups and the negative control group was 100 μl.
Observation continued for 51 days after initial tumor implantation.

[3] = system: H1299 human non-small cell lung cancer-cells; test: Cancer cell viability by cellular ATP levels (ViaLight), H1299; type: cell-based; conditions: NCI-H1299, 72 h, 3 days of incubation, ATP levels relative to untreated control
Description: (§2) Selected cell lines included C33A cervical carcinoma cells and H1299 human non-small cell lung cancer-cells (American Type Culture Collection, Manassas, Va. USA), which were cultured in the media recommended by the American Type Culture Collection. The cells lines were plated in 96-well microtiter plates (PerkinElmer Life Sciences Inc, Boston, Mass., USA) at a confluency that allowed them to reach confluence after 4 days of growth. One day after plating, the cells were treated with various concentrations of Compounds. Stock solutions of the Compounds were prepared in dimethyl sulfoxide (Sigma-Aldrich Inc., St. Louis, Mo., USA), diluted in the recommended media and then added to the cells. The total dimethyl sulfoxide on the cells was 0.1%. After 3 days of incubation the ATP levels in the cells were quantified using a luminescent ViaLight detection system (Bio-Whittaker, MD, USA). The results were plotted relative to untreated control cells, which were set at a value of 100. The IC50s were determined using a best-fit sigmoidal dose response curve with variable slope.

[4] = system: C33A cervical carcinoma cells; test: Cancer cell viability by cellular ATP levels (ViaLight), C33A; type: cell-based; conditions: Homo sapiens, C-33-A, 72 h, 3 days of incubation, ATP levels relative to untreated control
Description: as §2

[5] = 10 mg/kg iv once a day for five days
[6] = 2.6 mg/kg iv once a day for five days

Compound | IC50 [3] [µM] | IC50 [4] [nM] | also measured
COC1=CC(c2ccc(OC)c(OC)c2)=NC1=Cc1[nH]c(C)cc1C [Compound 17 Mesylate Salt, 2-((3-methoxy-5-(3,4-dimethoxyphenyl)-2H-pyrrol-2-ylidene)methyl)-3,5-dimethyl-1H-pyrrole] |  |  | reduction in tumor growth compared to mice treated with vehicle only ([1]; 36.25 μMoles/Kg iv once a day for five days): did not result in a statistical significant reduction in tumor growth; T/C value ([1]; 36.25 μMoles/Kg iv once a day for five days, day 29): 53%; T/C value ([1]; 36.25 μMoles/Kg iv once a day for five days, day 32): 52%; T/C value ([1]; 72.5 μMoles/Kg iv once a day for five days, day 29): 18%; T/C value ([1]; 72.5 μMoles/Kg iv once a day for five days, day 32): 22%; reduction in tumor growth compared to mice treated with vehicle only ([1]; 72.5 μMoles/Kg iv once a day for five days, days 29 and 32): statistically significant (p<0.01) reduction in tumor growth
COC1=CC(c2ccc(N(C)C)cc2)=NC1=Cc1[nH]c(C)cc1C [Compound 22 MS, 4-(4-methoxy-5-((3,5-dimethyl-1H-pyrrol-2-yl)methylene)-5H-pyrrol-2-yl)-N,N-dimethylbenzenamine] |  |  | reduction in tumor growth compared to mice treated with vehicle only [2, 5]: statistically significant (p=0.0024) reduction in tumor growth; T/C value [2, 5]: 34%
COC1=CC(c2cccnc2Cl)=NC1=Cc1[nH]c(C)cc1C [Compound 33, 2-chloro-3-(4-methoxy-5-((3,5-dimethyl-1H-pyrrol-2-yl)methylene)-5H-pyrrol-2-yl)pyridine] | 15.9 | 8730 | 
COC1=CC(c2ccc(SC(C)C)cc2)=NC1=Cc1[nH]c(C)cc1C [Compound 36, 2-((5-(4-(isopropylthio)phenyl)-3-methoxy-2H-pyrrol-2-ylidene)methyl)-3,5-dimethyl-1H-pyrrole] | 1.43 | 1180 | 
COC1=CC(c2cnn(Cc3ccccc3)c2)=NC1=Cc1[nH]c(C)cc1C [Compound 37 MS, 1-benzyl-4-(4-methoxy-5-((3,5-dimethyl-1H-pyrrol-2-yl)methylene)-5H-pyrrol-2-yl)-1H-pyrazole] |  |  | reduction in tumor growth compared to mice treated with vehicle only [2, 6]: statistically significant (p<0.0001) reduction in tumor growth; T/C value [2, 6]: 31%
COC1=CC(c2ccc(OC)c(O)c2)=NC1=Cc1[nH]c(C)cc1C [Compound 38, 2-methoxy-5-(4-methoxy-5-((3,5-dimethyl-1H-pyrrol-2-yl)methylene)-5H-pyrrol-2-yl)phenol] | 6.69 | 2000 | 
COC1=CC(c2ccc(F)nc2)=NC1=Cc1[nH]c(C)cc1C [Compound 39, 2-fluoro-5-(4-methoxy-5-((3,5-dimethyl-1H-pyrrol-2-yl)methylene)-5H-pyrrol-2-yl)pyridine] | 20 | 7650 | 
COC1=CC(c2cccnc2F)=NC1=Cc1[nH]c(C)cc1C [Compound 40, 2-fluoro-3-(4-methoxy-5-((3,5-dimethyl-1H-pyrrol-2-yl)methylene)-5H-pyrrol-2-yl)pyridine] | 20 | 8550 | 
COC1=CC(c2ccc(COC(C)(C)C)cc2)=NC1=Cc1[nH]c(C)cc1C [Compound 41, 2-((5-(4-(tert-butoxymethyl)phenyl)-3-methoxy-2H-pyrrol-2-ylidene)methyl)-3,5-dimethyl-1H-pyrrole] | 10.1 | 4170 | 
COC1=CC(c2ccc(OC)nc2)=NC1=Cc1[nH]c(C)cc1C [Compound 42, 2-methoxy-5-(4-methoxy-5-((3,5-dimethyl-1H-pyrrol-2-yl)methylene)-5H-pyrrol-2-yl)pyridine] | 13.9 | 7900 | 
Cc1cc(C)c(C=C2N=C(c3ccc4c(c3)OCO4)C=C2OCc2ccccc2)[nH]1 [Compound 44, 5-(benzo[d][1,3]dioxol-5-yl)-3-(benzyloxy)-2-((3,5-dimethyl-1H-pyrrol-2-yl)methylene)-2H-pyrrole] | 8.3 | 2160 | 

Now from value to molecule, other results behind:

IC50 [3] [µM] | IC50 [4] [nM] | Compound | also measured
2.38 | 627 | COC1=CC(c2cc(OC)c(OC)c(OC)c2)=NC1=Cc1[nH]c(C)cc1C [Compound 28, 2-((3-methoxy-5-(3,4,5-trimethoxyphenyl)-2H-pyrrol-2-ylidene)methyl)-3,5-dimethyl-1H-pyrrole] | 
6.64 | 1150 | COC1=CC(c2ccc(Br)cc2)=NC1=Cc1[nH]c(C)cc1C [Compound 29, 2-((5-(4-bromophenyl)-3-methoxy-2H-pyrrol-2-ylidene)methyl)-3,5-dimethyl-1H-pyrrole] | 
5.69 | 1200 | COC1=CC(c2cccnc2OC)=NC1=Cc1[nH]c(C)cc1C [Compound 30, 2-methoxy-3-(4-methoxy-5-((3,5-dimethyl-1H-pyrrol-2-yl)methylene)-5H-pyrrol-2-yl)pyridine] | 
0.668 | 212 | COC1=CC(c2ccc3c(c2)OCC3)=NC1=Cc1[nH]c(C)cc1C [Compound 31, 2-((5-(2,3-dihydrobenzofuran-6-yl)-3-methoxy-2H-pyrrol-2-ylidene)methyl)-3,5-dimethyl-1H-pyrrole] | 
6.87 | 6330 | COC1=CC(c2cnc(OC)nc2OC)=NC1=Cc1[nH]c(C)cc1C [Compound 32, 2,4-dimethoxy-5-(4-methoxy-5-((3,5-dimethyl-1H-pyrrol-2-yl)methylene)-5H-pyrrol-2-yl)pyrimidine] | 
1.24 | 1230 | COC1=CC(c2ccc3c(c2)OCCN3C)=NC1=Cc1[nH]c(C)cc1C [Compound 34, 3,4-dihydro-7-(4-methoxy-5-((3,5-dimethyl-1H-pyrrol-2-yl)methylene)-5H-pyrrol-2-yl)-4-methyl-2H-benzo[b][1,4]oxazine] | 
15.9 | 8960 | COC1=CC(c2cncnc2)=NC1=Cc1[nH]c(C)cc1C [Compound 35, 5-(4-methoxy-5-((3,5-dimethyl-1H-pyrrol-2-yl)methylene)-5H-pyrrol-2-yl)pyrimidine] | 
1.65 | 181 | COC1=CC(c2cnn(Cc3ccccc3)c2)=NC1=Cc1[nH]c(C)cc1C [Compound 37, 1-benzyl-4-(4-methoxy-5-((3,5-dimethyl-1H-pyrrol-2-yl)methylene)-5H-pyrrol-2-yl)-1H-pyrazole] | 
0.709 | 131 | COc1ccc(C2=NC(=Cc3[nH]c(C)cc3C)C(OCc3ccccc3)=C2)cc1OC [Compound 43, 3-(benzyloxy)-5-(3,4-dimethoxyphenyl)-2-((3,5-dimethyl-1H-pyrrol-2-yl)methylene)-2H-pyrrole] | 
